Among the data in paper PMC10924921, “Mi-2β promotes immune evasion in melanoma by activating EZH2 methylation” (Nature Communications, 2024) are remaining binding values, retold here.

Assay in all cases: biochemical
Holding throughout (set-up): KINOMEscan active-site competition binding panel (468 kinase assays), per cent of control at 1000 nM
Details in all cases: KINOMEscan per cent of control (binding competition); read-out: Percent Control

The target of one assay is CAMKK2 (Homo sapiens, UniProt Q96RR4). The text has this: (§1) Figure S7 / Percent Control
The target in the next assay is CDK8 (Homo sapiens, UniProt P49336).
From the text: as §1

The next assay concerns the target CSF1R-autoinhibited (Homo sapiens, UniProt P07333).
From the text: as §1

The target in another assay is CSNK1G3 (Homo sapiens, UniProt Q9Y6M4).
From the text: as §1

The target in a further assay is DDR2 (Homo sapiens, UniProt Q16832).
From the text: as §1

For the next assay, the target named is DYRK1A (Homo sapiens, UniProt Q13627).
From the text: as §1

The target of the next assay is EGFR (Homo sapiens, UniProt P00533).
From the text: as §1

For another assay, the target named is FER (Homo sapiens, UniProt P16591).
From the text: as §1

A further assay addresses T1, GCN2(Kin.Dom.2,S808G) (Homo sapiens, UniProt Q9P2K8, S808G).
T1 construct: gene EIF2AK4; Kin.Dom.2
From the text: as §1

Another assay concerns the target HIPK1 (Homo sapiens, UniProt Q86Z02).
From the text: as §1

The target in the next assay is KIT(D816V) (Homo sapiens, UniProt P10721, D816V).
From the text: as §1

The next assay has as its target T2, LOK (Homo sapiens, UniProt O94804).
T2 construct: gene STK10
From the text: as §1

For a further assay, the target named is T3, LZK (Homo sapiens, UniProt O43283).
T3 construct: gene MAP3K13
From the text: as §1

The target of the next assay is MAK (Homo sapiens, UniProt P20794).
From the text: as §1

The target of the next assay is T4, MKK7 (Homo sapiens, UniProt O14733).
T4 construct: gene MAP2K7
From the text: as §1

A further assay concerns the target T5, MLK3 (Homo sapiens, UniProt Q16584).
T5 construct: gene MAP3K11
From the text: as §1

The next assay addresses NEK9 (Homo sapiens, UniProt Q8TD19).
From the text: as §1

In the next assay the target is PHKG1 (Homo sapiens, UniProt Q16816).
From the text: as §1

The next assay concerns the target PIK3CA(E542K) (Homo sapiens, UniProt P42336, E542K).
From the text: as §1

Another assay concerns the target RET (Homo sapiens, UniProt P07949).
From the text: as §1

The target of assay [1] is T6, RSK1(Kin.Dom.1-N-terminal) (Homo sapiens, UniProt Q15418).
T6 construct: gene RPS6KA1; Kin.Dom.1-N-terminal
From the text: as §1

In assay [2] the target is T7, RSK3(Kin.Dom.1-N-terminal) (Homo sapiens, UniProt Q15349).
T7 construct: gene RPS6KA2; Kin.Dom.1-N-terminal
From the text: as §1

The next assay addresses T8, SNARK (Homo sapiens, UniProt Q9H093).
T8 construct: gene NUAK2
From the text: as §1

The target of a further assay is T9, YANK3 (Homo sapiens, UniProt Q86UX6).
T9 construct: gene STK32C
From the text: as §1

T3 sequence (O43283 whole entry): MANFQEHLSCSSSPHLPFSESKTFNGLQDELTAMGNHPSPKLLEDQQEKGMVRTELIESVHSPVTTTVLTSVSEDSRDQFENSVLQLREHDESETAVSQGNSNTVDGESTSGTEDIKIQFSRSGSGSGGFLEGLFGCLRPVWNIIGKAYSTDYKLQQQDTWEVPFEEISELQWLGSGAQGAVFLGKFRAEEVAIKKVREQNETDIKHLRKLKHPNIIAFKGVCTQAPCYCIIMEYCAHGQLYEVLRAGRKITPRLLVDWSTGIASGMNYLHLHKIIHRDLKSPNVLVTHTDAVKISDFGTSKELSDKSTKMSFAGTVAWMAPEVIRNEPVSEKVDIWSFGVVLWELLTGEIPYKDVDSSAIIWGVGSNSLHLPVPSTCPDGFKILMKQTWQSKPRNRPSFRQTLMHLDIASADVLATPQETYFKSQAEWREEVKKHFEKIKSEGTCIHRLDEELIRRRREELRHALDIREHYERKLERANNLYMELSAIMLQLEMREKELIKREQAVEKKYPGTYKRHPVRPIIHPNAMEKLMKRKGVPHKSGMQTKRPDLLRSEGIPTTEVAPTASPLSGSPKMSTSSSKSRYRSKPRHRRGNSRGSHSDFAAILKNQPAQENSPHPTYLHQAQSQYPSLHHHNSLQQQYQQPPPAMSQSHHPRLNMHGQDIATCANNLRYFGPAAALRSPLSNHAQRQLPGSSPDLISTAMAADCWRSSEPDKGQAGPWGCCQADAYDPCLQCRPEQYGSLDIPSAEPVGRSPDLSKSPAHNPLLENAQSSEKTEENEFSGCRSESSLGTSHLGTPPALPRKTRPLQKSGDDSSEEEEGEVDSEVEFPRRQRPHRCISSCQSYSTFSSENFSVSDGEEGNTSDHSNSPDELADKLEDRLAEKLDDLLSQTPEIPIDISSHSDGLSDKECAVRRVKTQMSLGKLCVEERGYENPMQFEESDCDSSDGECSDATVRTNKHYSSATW
T1 sequence (Q9P2K8 whole entry S808G): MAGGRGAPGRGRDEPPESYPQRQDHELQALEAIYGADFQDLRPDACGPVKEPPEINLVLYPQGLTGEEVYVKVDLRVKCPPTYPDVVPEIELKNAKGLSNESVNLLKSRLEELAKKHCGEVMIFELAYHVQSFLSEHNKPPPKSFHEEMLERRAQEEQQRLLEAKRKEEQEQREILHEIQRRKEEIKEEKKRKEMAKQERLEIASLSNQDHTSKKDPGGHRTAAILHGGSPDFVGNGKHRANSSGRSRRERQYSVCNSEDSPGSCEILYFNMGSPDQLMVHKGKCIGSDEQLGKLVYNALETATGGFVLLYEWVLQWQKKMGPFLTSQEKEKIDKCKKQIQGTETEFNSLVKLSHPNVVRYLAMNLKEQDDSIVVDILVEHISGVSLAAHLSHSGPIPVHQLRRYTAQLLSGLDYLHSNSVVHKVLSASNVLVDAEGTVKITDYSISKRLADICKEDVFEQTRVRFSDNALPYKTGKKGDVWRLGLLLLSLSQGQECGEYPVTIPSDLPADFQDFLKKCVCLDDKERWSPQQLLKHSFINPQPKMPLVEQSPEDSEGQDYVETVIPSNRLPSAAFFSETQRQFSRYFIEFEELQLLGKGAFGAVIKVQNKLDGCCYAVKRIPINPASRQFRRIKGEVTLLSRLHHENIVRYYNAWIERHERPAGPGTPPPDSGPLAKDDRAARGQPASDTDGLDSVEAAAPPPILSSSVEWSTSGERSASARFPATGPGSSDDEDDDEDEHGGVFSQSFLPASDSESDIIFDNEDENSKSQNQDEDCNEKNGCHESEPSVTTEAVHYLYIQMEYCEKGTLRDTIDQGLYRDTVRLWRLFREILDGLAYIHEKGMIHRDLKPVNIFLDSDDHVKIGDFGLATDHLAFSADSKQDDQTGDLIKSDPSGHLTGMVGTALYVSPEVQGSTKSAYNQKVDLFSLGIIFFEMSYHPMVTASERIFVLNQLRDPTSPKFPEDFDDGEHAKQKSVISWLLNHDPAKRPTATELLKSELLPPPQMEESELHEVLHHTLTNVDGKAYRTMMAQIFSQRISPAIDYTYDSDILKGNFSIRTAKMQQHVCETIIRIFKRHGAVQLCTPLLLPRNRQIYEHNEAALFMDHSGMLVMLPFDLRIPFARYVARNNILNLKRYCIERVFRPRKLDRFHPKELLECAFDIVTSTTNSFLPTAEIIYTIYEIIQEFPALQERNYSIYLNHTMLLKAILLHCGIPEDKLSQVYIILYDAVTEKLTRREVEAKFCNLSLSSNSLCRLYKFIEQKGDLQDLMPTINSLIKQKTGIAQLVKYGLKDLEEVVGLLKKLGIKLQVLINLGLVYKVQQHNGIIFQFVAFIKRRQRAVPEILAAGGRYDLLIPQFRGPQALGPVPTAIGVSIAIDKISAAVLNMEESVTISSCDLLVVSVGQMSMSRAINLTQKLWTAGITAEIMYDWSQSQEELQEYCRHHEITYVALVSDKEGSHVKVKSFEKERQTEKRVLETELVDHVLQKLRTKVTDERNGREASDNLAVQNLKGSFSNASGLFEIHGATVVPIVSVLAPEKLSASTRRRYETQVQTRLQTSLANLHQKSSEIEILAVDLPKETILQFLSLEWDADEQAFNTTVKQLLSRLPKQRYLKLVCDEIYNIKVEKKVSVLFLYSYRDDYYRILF
T5 sequence (Q16584 whole entry): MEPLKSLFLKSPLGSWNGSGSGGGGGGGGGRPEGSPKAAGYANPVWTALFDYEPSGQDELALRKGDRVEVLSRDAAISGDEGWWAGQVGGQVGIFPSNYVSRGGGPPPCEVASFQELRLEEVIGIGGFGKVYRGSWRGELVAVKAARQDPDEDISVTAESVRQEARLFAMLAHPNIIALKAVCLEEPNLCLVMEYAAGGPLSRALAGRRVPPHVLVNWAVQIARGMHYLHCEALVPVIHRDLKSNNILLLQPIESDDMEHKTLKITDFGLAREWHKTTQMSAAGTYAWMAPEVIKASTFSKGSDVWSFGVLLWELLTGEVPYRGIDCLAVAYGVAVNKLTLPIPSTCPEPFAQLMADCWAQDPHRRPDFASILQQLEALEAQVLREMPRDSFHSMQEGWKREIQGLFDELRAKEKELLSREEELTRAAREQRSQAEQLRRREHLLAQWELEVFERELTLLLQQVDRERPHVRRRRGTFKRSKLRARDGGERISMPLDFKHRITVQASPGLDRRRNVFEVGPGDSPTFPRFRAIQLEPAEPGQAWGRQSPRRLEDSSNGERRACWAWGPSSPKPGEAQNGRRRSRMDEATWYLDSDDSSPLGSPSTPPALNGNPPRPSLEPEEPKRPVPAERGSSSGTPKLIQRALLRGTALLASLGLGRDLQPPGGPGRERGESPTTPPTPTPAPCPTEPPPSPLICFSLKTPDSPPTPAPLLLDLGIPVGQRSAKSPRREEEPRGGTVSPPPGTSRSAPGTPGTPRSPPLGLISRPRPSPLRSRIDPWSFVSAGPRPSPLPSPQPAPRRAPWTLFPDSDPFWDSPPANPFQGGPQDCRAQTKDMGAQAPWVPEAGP
T2 sequence (O94804 whole entry): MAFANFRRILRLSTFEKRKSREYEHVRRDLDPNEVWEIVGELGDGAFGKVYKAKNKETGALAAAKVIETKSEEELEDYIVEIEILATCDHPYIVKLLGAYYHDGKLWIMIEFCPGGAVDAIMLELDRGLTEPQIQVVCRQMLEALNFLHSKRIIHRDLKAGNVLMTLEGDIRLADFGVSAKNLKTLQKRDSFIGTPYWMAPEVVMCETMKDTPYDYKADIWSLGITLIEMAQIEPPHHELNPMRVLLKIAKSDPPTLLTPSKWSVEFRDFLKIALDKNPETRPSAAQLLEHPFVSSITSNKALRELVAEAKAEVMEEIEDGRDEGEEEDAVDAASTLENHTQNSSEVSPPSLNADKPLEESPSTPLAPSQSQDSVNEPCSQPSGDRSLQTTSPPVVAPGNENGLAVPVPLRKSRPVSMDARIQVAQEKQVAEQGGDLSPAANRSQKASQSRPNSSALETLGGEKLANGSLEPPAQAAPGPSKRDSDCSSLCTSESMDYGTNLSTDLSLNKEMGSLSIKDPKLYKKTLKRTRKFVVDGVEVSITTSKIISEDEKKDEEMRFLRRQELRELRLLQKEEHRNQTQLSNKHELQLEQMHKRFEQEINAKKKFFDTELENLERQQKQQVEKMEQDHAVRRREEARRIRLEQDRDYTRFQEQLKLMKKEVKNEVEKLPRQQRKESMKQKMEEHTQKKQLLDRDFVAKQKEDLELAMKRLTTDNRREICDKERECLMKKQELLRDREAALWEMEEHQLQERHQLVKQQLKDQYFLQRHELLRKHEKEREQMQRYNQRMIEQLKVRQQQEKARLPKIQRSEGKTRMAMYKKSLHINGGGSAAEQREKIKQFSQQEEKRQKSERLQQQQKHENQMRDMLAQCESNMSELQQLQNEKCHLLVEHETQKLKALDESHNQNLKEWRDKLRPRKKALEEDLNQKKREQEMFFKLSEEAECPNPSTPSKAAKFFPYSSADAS
MAK, sequence (P20794 whole entry): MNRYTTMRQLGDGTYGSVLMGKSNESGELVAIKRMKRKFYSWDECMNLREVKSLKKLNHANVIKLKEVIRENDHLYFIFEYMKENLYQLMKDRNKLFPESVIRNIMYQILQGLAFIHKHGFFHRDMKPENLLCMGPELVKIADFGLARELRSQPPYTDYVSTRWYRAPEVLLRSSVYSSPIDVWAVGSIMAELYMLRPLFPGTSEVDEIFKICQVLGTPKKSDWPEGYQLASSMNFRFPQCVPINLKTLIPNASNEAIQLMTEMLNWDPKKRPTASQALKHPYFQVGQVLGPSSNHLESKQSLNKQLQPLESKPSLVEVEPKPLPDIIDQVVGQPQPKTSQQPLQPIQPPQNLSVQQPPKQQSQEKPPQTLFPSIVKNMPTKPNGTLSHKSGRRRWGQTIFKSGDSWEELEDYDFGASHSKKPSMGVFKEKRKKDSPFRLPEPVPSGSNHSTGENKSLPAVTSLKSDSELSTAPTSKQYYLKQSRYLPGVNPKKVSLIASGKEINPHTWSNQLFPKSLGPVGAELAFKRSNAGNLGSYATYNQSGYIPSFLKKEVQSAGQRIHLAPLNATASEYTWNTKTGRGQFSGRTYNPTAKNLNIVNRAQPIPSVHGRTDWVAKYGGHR

As for `Cn1c(=O)[nH]c2ccc(-c3cccc(C(=O)NC4CCn5ccnc5C4)c3)cc21` (stereo not drawn) [Z36-MP5], the remaining binding at 1 µM came to 51% at CAMKK2; 55% at CDK8; 54% at CSF1R-autoinhibited; 74% at CSNK1G3; 66% on DDR2; 60% at DYRK1A. Also, the remaining binding at 1 µM on EGFR came to 97%; at FER, 90%; on GCN2(Kin.Dom.2,S808G), 94%; on HIPK1 it was 100%; on KIT(D816V) it was 58%; at LOK, 90%. For the same compound, the remaining binding at 1 µM at LZK came out at 63%; at MAK it was 88%; on MKK7 it was 72%; on MLK3, 93%; at NEK9 it was 83%; on PHKG1 it was 90%. In addition, the remaining binding at 1 µM on PIK3CA(E542K) worked out at 70%; on RET it was 67%; in assay [1], 93%; in [2], 93%; at SNARK it was 64%; at YANK3, 94%.
